The supplement of paper PMC9663587

Assays:
[1] = compound: CN1CC[C@H](c2c(O)cc(O)c3c(=O)cc(-c4ccccc4Cl)oc23)[C@H](O)C1 [Flavopiridol]; experiment: increase in dead-cell fraction, 72 h; higher = more death;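 further: breast cancer cell lines in 384-well plates, stained with Hoechst plus LIVE/DEAD far red dye and imaged, cells above an LDR intensity threshold counted dead, Hoechst-negative corpses included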
[2] = compound: CCc1cnn2c(NCc3ccc[n+]([O-])c3)cc(N3CCCC[C@H]3CCO)nc12; experiment: as above
[3] = compound: CCN1CCN(Cc2ccc(Nc3ncc(F)c(-c4cc(F)c5nc(C)n(C(C)C)c5c4)n3)nc2)CC1; experiment: as above
[4] = compound: CC(=O)c1c(C)c2cnc(Nc3ccc(N4CCN(CCOCCOCCOCCNC(=O)COc5cccc6c5C(=O)N(C5CCC(=O)NC5=O)C6=O)CC4)cn3)nc2n(C2CCCC2)c1=O [BSJ-03-123]; experiment: as above
[5] = compound: CN(C)C/C=C/C(=O)Nc1ccc(C(=O)Nc2cccc(Nc3ncc(Cl)c(-c4c[nH]c5ccccc45)n3)c2)cc1 [THZ1]; experiment: as above
[6] = compound: CC(=O)c1c(C)c2cnc(Nc3ccc(N4CCNCC4)cn3)nc2n(C2CCCC2)c1=O; experiment: as above
[7] = compound: CN(C)C(=O)c1cc2cnc(Nc3ccc(N4CCNCC4)cn3)nc2n1C1CCCC1 [LEE011/Ribociclib]; experiment: as above
[8] = compound: CCOc1cc2ncc(C#N)c(Nc3ccc(OCc4ccccn4)c(Cl)c3)c2cc1NC(=O)/C=C/CN(C)C [Neratinib/HKI272]; experiment: as above
[9] = compound: C[C@@H]1COCCN1c1cc(C2([S@](C)(=N)=O)CC2)nc(-c2cc[nH]c3nccc2-3)n1 [AZD6738]
[10] = compound: O=C1NC(=O)[C@@H](c2cn3c4c(cccc24)CCC3)[C@@H]1c1c[nH]c2ccccc12 [Tivantinib/ARQ197]
[11] = compound: CCC1=CN=CN=C1N2CCN(CC2)CC3=NC4=C(N3)C=C(C=C4)C(F)(F)F
[12] = compound: CNC(=O)c1cccc(-c2ccc3c(N4CCOC[C@@H]4C)nc(N4CCOC[C@@H]4C)nc3n2)c1 [AZD2014]
[13] = compound: O=C(CCCCCCC(=O)Nc1ccccc1)NO [Vorinostat]
[14] = compound: CC(C)NC[C@@H](C(=O)N1CCN(c2ncnc3c2[C@H](C)C[C@H]3O)CC1)c1ccc(Cl)cc1 [Ipatasertib/GDC0068]
[15] = compound: CCN1CCN(Cc2ccc(Nc3ncc(F)c(-c4cc(F)c5nc(C)n(C(C)C)c5c4)n3)nc2)CC1
[16] = compound: CC(=O)Nc1cccc(-n2c(=O)n(C3CC3)c(=O)c3c(Nc4ccc(I)cc4F)n(C)c(=O)c(C)c32)c1
[17] = compound: COc1ccc2c(c1)[C@]1(C[C@H]1c1ccc3c(/C=C/c4ccc(CN5C[C@@H](C)O[C@@H](C)C5)cc4)n[nH]c3c1)C(=O)N2
[18] = compound: NC(=O)Nc1cc(-c2cccc(F)c2)sc1C(=O)N[C@H]1CCCNC1 [AZD7762]
[19] = compound: CN(C)C/C=C/C(=O)Nc1ccc(O[C@@H]2CCC[C@@H](Nc3ncc(Cl)c(-c4c[nH]c5ccccc45)n3)C2)cc1 [BSJ-01-175]
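Wherever GR50, 72 h is given: breast cancer and non-malignant breast epithelial cell lines, Deep Dye Drop or Dye Drop imaging, nine half-log doses, GR normalized to time-zero plates and DMSO-only controls.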

Cell Line: MCF7
- increase in dead-cell fraction ([1]; 0.0001 µM): -0.0023
- increase in dead-cell fraction ([1]; 0.0003162 µM): 0.0009
- increase in dead-cell fraction ([1]; 0.001 µM): 0.0003
- increase in dead-cell fraction ([1]; 0.003162 µM): 0.0007
- increase in dead-cell fraction ([1]; 0.01 µM): 0.0049
- increase in dead-cell fraction ([1]; 0.03162 µM): 0.0017
- increase in dead-cell fraction ([1]; 0.1 µM): 0.0144
- increase in dead-cell fraction ([1]; 0.3162 µM): 0.257
- increase in dead-cell fraction ([1]; 1 µM): 0.183
- increase in dead-cell fraction ([2]; 0.0001 µM): 0.0003
- increase in dead-cell fraction ([2]; 0.0003162 µM): -0.0006
- increase in dead-cell fraction ([2]; 0.001 µM): -0.0004
- increase in dead-cell fraction ([2]; 0.003162 µM): 0.0012
- increase in dead-cell fraction ([2]; 0.01 µM): 0.0757
- increase in dead-cell fraction ([2]; 0.03162 µM): 0.319
- increase in dead-cell fraction ([2]; 0.1 µM): 0.272
- increase in dead-cell fraction ([2]; 0.3162 µM): 0.225
- increase in dead-cell fraction ([2]; 1 µM): 0.229
- increase in dead-cell fraction ([3]; 0.001 µM): 0.0009
- increase in dead-cell fraction ([3]; 0.003162 µM): 0.0022
- increase in dead-cell fraction ([3]; 0.01 µM): 0.0141
- increase in dead-cell fraction ([3]; 0.03162 µM): 0.0241
- increase in dead-cell fraction ([3]; 0.1 µM): 0.0305
- increase in dead-cell fraction ([3]; 0.3162 µM): 0.0363
- increase in dead-cell fraction ([3]; 1 µM): 0.0543
- increase in dead-cell fraction ([3]; 3.162 µM): 0.277
- increase in dead-cell fraction ([3]; 10 µM): 0.373
- increase in dead-cell fraction ([4]; 0.001 µM): 0.0009
- increase in dead-cell fraction ([4]; 0.003162 µM): 0.0021
- increase in dead-cell fraction ([4]; 0.01 µM): 0.0018
- increase in dead-cell fraction ([4]; 0.03162 µM): 0.0017
- increase in dead-cell fraction ([4]; 0.1 µM): 0.0038
- increase in dead-cell fraction ([4]; 0.3162 µM): 0.0034
- increase in dead-cell fraction ([4]; 1 µM): 0.008
- increase in dead-cell fraction ([4]; 3.162 µM): 0.0042
- increase in dead-cell fraction ([4]; 10 µM): 0.274
- increase in dead-cell fraction ([5]; 0.0001 µM): -0.0005
- increase in dead-cell fraction ([5]; 0.0003162 µM): 0.0028
- increase in dead-cell fraction ([5]; 0.001 µM): 0.0017
- increase in dead-cell fraction ([5]; 0.003162 µM): 0.0005
- increase in dead-cell fraction ([5]; 0.01 µM): 0.0078
- increase in dead-cell fraction ([5]; 0.03162 µM): 0.0606
- increase in dead-cell fraction ([5]; 0.1 µM): 0.196
- increase in dead-cell fraction ([5]; 0.3162 µM): 0.176
- increase in dead-cell fraction ([5]; 1 µM): 0.338
- increase in dead-cell fraction ([6]; 0.0003162 µM): -0.0006
- increase in dead-cell fraction ([6]; 0.001 µM): -0.0004
- increase in dead-cell fraction ([6]; 0.003162 µM): 0.002
- increase in dead-cell fraction ([6]; 0.01 µM): 0.0051
- increase in dead-cell fraction ([6]; 0.03162 µM): 0.0099
- increase in dead-cell fraction ([6]; 0.1 µM): 0.0195
- increase in dead-cell fraction ([6]; 0.3162 µM): 0.022
- increase in dead-cell fraction ([6]; 1 µM): 0.0362
- increase in dead-cell fraction ([6]; 3.162 µM): 0.0308
- increase in dead-cell fraction ([7]; 0.001 µM): 0.0006
- increase in dead-cell fraction ([7]; 0.003162 µM): 0.0004
- increase in dead-cell fraction ([7]; 0.01 µM): 0.0034
- increase in dead-cell fraction ([7]; 0.03162 µM): 0.0049
- increase in dead-cell fraction ([7]; 0.1 µM): 0.0006
- increase in dead-cell fraction ([7]; 0.3162 µM): 0.0139
- increase in dead-cell fraction ([7]; 1 µM): 0.0076
- increase in dead-cell fraction ([7]; 3.162 µM): 0.0151
- increase in dead-cell fraction ([7]; 10 µM): 0.0147
- increase in dead-cell fraction ([8]; 0.0003162 µM): 0
- increase in dead-cell fraction ([8]; 0.001 µM): 0.0036
- increase in dead-cell fraction ([8]; 0.003162 µM): 0.0018
- increase in dead-cell fraction ([8]; 0.01 µM): 0.0034
- increase in dead-cell fraction ([8]; 0.03162 µM): 0.0035
- increase in dead-cell fraction ([8]; 0.1 µM): 0.0017
- increase in dead-cell fraction ([8]; 0.3162 µM): 0.0089
- increase in dead-cell fraction ([8]; 1 µM): 0.0125
- increase in dead-cell fraction ([8]; 3.162 µM): 0.164
- GR50, 72 h [9]: 3.05 µM
- GR50, 72 h [10]: 0.151 µM
- GR50, 72 h [11]: > 10 µM
- GR50, 72 h [12]: < 0.001 µM
- GR50, 72 h [13]: 0.542 µM
- GR50, 72 h [14]: 1.3 µM
- GR50, 72 h [15]: 0.0236 µM
- GR50, 72 h [16]: > 1 µM
- GR50, 72 h [17]: 0.00197 µM
- GR50, 72 h [18]: 0.0414 µM
- GR50, 72 h [19]: 0.006 µM
